The record followed here is patent US20170348306A1, “METHODS OF TREATING CANCER” (GLAXOSMITHKLINE LLC, priority 2011, published 2017).

Data set [1] deals with KARPAS-422. Nature of the data set: Cell cycle analysis by flow cytometry. In kind it is cell-based, human. To be noted: 500 nM GSK126, 72 hours. As for the experimental part:
Cell cycle phase distribution was examined by flow cytometry. […] Cells were washed with PBS, pelleted in BD buffer solution, flash frozen, and stored at −80° C. CycleTest™ PLUS DNA reagent kit (Becton Dickinson, 340242) was used according to the manufacturer's instructions to prepare and stain nuclei with propidium iodide. Samples were evaluated using a FACSCalibur flow cytometer (Becton Dickinson) and data were analyzed using FlowJo software (Tree Star).

Data set [2] in a line: Complete blood count analysis of peripheral blood. It counts as in vivo. To be noted: immunocompetent CD-1 mice; twice weekly dosing over 18 days. As for the experimental part:
(§1) All studies were conducted after review by the Institutional Animal Care and Use Committee at GSK and in accordance with the GSK Policy on the Care, Welfare and Treatment of Laboratory Animals. […] Pfeiffer or KARPAS-422 cells (1×10^7) in 100% matrigel (BD Biosciences) were implanted subcutaneously in female beige SCID mice. Tumors were measured with calipers, block randomized according to tumor size into treatment groups. […] Mice were weighed and tumors measured with calipers twice weekly. For mouse pharmacokinetic studies, tumor and blood samples were harvested from euthanized mice at the indicated time. […] For pharmacodynamic studies, a portion of each tumor was frozen for H3K27me3/H3 ELISAs or placed in RNAlater (Ambion) for RNA isolation. For peripheral blood analyses, blood was harvested via cardiac puncture from euthanized, immunocompetent CD-1 mice (3 mice/group) on day 18. Blood was immediately placed into a Microtainer EDTA tube (BD) and gently mixed by inverting. A complete blood count analysis was conducted using the Advia 2120 hematology analyzer (Siemens Medical Solutions) using multi-species software as per manufacturer's instructions.

For data set [3], the system named is TXNIP and TNFRSF21 expression. The data set is described as follows: qRT-PCR of H3K27me3-enriched genes. It counts as cell-based, human. To be noted: 72 hours. As for the experimental part:
RNA (2.8 μg) was reverse transcribed with MultiScribe Reverse Transcriptase (Applied BioSystems) according to the manufacturer's recommendations. The resulting cDNA was diluted and used along with TaqMan gene expression assays (Applied Biosystems; GAPDH, Hs03929097_g1; TNFRSF21, Hs00205419_m1; TXNIP, Hs00197750_m1). TaqMan Gene Expression Master Mix (Applied BioSystems), and a ViiA 7 Real-Time PCR System (Applied BioSystems) according to the manufacturer's recommendations to quantify gene expression.
(In general: In qPCR the cycle at which signal appears reflects the starting amount.)

For a further data set, the system named is KARPAS-422 xenografts. Nature of the data set: Subcutaneous tumor xenograft efficacy study. The settings on record: for tumor response upon cessation of dosing / tumor growth: KARPAS-422 xenografts. In kind it is in vivo, mice. As for the experimental part:
(§2) Biochemical assays utilized the 5-member PRC2 complex (human Flag-EZH2, EED, SUZ12, AEBP2, RbAp48) containing either WT or mutant EZH2, [^3H-]SAM and the indicated peptide substrate; reactions were incubated for 30 minutes. Global histone modification levels were determined by ELISA or western blot methods using antibodies specific for total histone H3, H3K27me1, H3K27me2, or H3K27me3. Cell proliferation and Caspase-3/7 activity were assessed using CellTiter-Glo and Caspase-Glo 3/7 (Promega), respectively. Gene expression profiling was conducted using Affymetrix Human Genome U133 Plus 2.0 microarrays. Differentially-expressed probe sets were determined by fitting the data to a linear model using the limma statistical package (http://www.bioconductor.org) and carrying out pair-wise contrasts of treated versus control. Significant probe sets were filtered for detection (log2 signal threshold of 8), an average fold-change >2 or <−2, or >1.5 or <−1.5, where indicated, with p-values adjusted for multiple testing correction by FDR (Benjamini Hochberg)<0.1. H3K27me3 ChIP reads were aligned using Bowtie (56). H3K27me3 enrichment peaks were identified using SICER (57) with optimized parameters. A custom PERL script was utilized to quantify the average basal H3K27me3 ChIP-seq tag density across gene sets. All in vivo studies were conducted after review by the Institutional Animal Care and Use Committee at GSK and in accordance with the GSK Policy on the Care, Welfare and Treatment of Laboratory Animals. GSK126 and vehicle were administered to mice intraperitoneally. Two-tailed t-tests were conducted assuming two samples of equal variance.
as §1

The next data set deals with Pfeiffer xenografts. Nature of the data set: Subcutaneous tumor xenograft efficacy study. It counts as in vivo, mice. To be noted: daily 50 mg/kg, intraperitoneal. As for the experimental part:
as §2, §1

Data set [4] concerns KARPAS-422. The data set is described as follows: Cell proliferation assay (6 days, CellTiter-Glo). It counts as cell-based, human.
Excerpt: (§3) Thus, Example 22 and Table 6 better reflect the inhibition of HZH2 inhibitors on cell lines, e.g. the lymphoma cell lines. DLBCL cell lines were the most sensitive to EZH2 inhibition (FIG. 11a). […] Evaluation of GSK126 in additional lymphoma cell lines and extensive genomic and epigenomic characterization will be required to fully elucidate the determinants of sensitivity among lymphoma subtypes.
as §2
(§4) The optimal cell seeding was determined empirically for all cell lines by examining the growth of a wide range of seeding densities in a 384-well format to identify conditions that permitted proliferation for 6 days. […] Plates were incubated for 6 days at 37° C. in 5% CO2. Cells were then lysed with CellTiter-Glo (Promega) and chemiluminescent signal was detected with a TECAN Safire2 microplate reader. In addition, an untreated plate of cells was harvested at the time of compound addition (T0) to quantify the starting number of cells. CTG values obtained after the 6 day treatment were expressed as a percent of the T0 value and plotted against compound concentration.
Background: In ATP-based viability assays light output follows the ATP content of the culture.

The test system of the next data set is Pfeiffer. Nature of the data set: Cell proliferation assay (6 days, CellTiter-Glo). It counts as cell-based, human.
Excerpt: as §3, §2, §4

As a reminder, the IC50 is the midpoint of a concentration-inhibition curve.

Turning to `CC[C@H](C)n1cc(C)c2c(C(=O)NCc3c(C)cc(C)[nH]c3=O)cc(-c3ccc(N4CCNCC4)nc3)cc21` [GSK126], the “cells in G1” value in the data set with KARPAS-422 [1] is listed as 77%. The “complete blood count, blood cell types” value in data set [2] is listed as “no significant changes”. In data set [3] (Pfeiffer and KARPAS-422, two H3K27me3-enriched genes), the “lowest concentration with dose-responsive increases in gene expression” value is listed as 25 nM. Moreover, the “gene expression changes (qRT-PCR)” value in data set [3] (Toledo, up to 1 μM GSK126) is on record as “no transcriptional changes”. The tumor growth inhibition in the data set on KARPAS-422 xenografts (KARPAS-422 xenografts with large tumors, intermittent dosing, weekly or with 1 week drug holiday, all schedules) was 91-100%. Moreover, the “tumor response upon cessation of dosing” value is recorded as “tumor stasis” with KARPAS-422 xenografts (50 mg/kg QD group), “complete tumor eradication” with KARPAS-422 xenografts (150 mg/kg QD group) and “complete tumor eradication” in the data set with KARPAS-422 xenografts (300 mg/kg twice/week group). Besides, the tumor growth result was “complete tumor growth inhibition” in the data set on KARPAS-422 xenografts (daily 50 mg/kg, intraperitoneal); “marked tumor regression” with KARPAS-422 xenografts (higher dosing regimens); “complete tumor growth inhibition” in the data set on Pfeiffer xenografts. The survival of mice entry in the data set with KARPAS-422 xenografts (mice bearing KARPAS-422 tumors) is listed as “statistically significant increased survival”. Also, the “time required for maximal potency on growth” value with KARPAS-422 [4] fell in the range of 6 to 7 days. In addition, the IC50 in the data set with KARPAS-422 [4] (Homo sapiens, 144 h, 6 days, DLBCL, EZH2 Y641F (HET), read-out: AVERAGE GROWTH IC50) is 232 nM; in the data set with Pfeiffer (Homo sapiens, 144 h, […], 6 days, DLBCL, EZH2 A677G (HET), read-out: AVERAGE GROWTH IC50) it was 28 nM. In addition, the “time after which net decreases in cell number were evident” value in the data set with Pfeiffer is recorded as 3 days. Moreover, the “time after which potent inhibition of cell proliferation was observed” value in the data set with Pfeiffer was 2 days.
